Experiments:
[1] = DMSO in water formulations: dissolution, physical stability, effect of pH on chemical stability; format: physicochemical; conditions: 1 mg/mL, 1% (v/v) DMSO in water, pH 5.5
Method: Various concentrations of DMSO were explored as the non-aqueous component of the formulation (2% v/v to 5% v/v in water). Bortezomib was first completely dissolved in the batch volume of DMSO to form a concentrated “premix” solution prior to making up the batch to the target concentration (2.5 mg/mL) with water. This was done to facilitate the subsequent dissolution of bortezomib in the aqueous component. The pH values of the formulations were all approximately 7.
The effect of pH on bortezomib formulations using a low concentration of DMSO in water (4.5% v/v DMSO for the 2.5 mg/mL strength and 1% v/v DMSO for the 1 mg/mL strength) was then assessed. In each case, the bortezomib was first fully dissolved in the batch quantity of DMSO to form a concentrated premix solution, which was then added to water, and the pH adjusted with sodium hydroxide and/or hydrochloric acid to pH ranging from 4 to 8.5. […] Because oxidative degradation is a significant degradation pathway for bortezomib, filled vials were overlayed with nitrogen. These batches were placed on stability at accelerated (25° C.) and long-term storage conditions (2-8° C.). […]

[2] = Formulation attempts at 2.5 mg/mL with low concentrations of benzyl alcohol and other non-aqueous solvents; format: physicochemical
Method: Initial formulation experiments with low concentrations of various non-aqueous solvents were conducted targeting a bortezomib concentration of 2.5 mg/mL. Attempts to solubilize bortezomib were conducted using low concentrations of benzyl alcohol (2% v/v), or dimethyl sulfoxide (5% v/v), or a combination of these solvents. […] For these formulations, the non-aqueous solvent was added to bortezomib to dissolve it, followed by addition of water to the bortezomib-solvent mixture.

Total Impurities after 2 months at 25° C. (%) [1]: 0.52%
Dissolution on addition of water to bortezomib-solvent mixture ([2]; target 2.5 mg/mL, benzyl alcohol (2% v/v), DMSO (5% v/v) or combination, mixing >3 hours): precipitated after addition of water
Structure (SMILES): CC(C)C[C@H](NC(=O)[C@H](Cc1ccccc1)NC(=O)c1cnccn1)B(O)O [Bortezomib, [(1R)-3-methyl-1-[[(2S)-1-oxo-3-phenyl-2-[(pyrazinylcarbonyl)amino]propyl]amino]butyl] boronic acid]
Appearance on heating the solution ([2]; heating up to 70° C., precipitated bortezomib not dissolved): a pink color formed indicating degradation of the active

— patent US20230104074A1, “BORTEZOMIB COMPOSITIONS” (MAIA Pharmaceuticals, Inc., priority 2021, published 2023)
